The source of these data is US9562082B2, “Production of glycoproteins with low N-glycolylneuraminic acid (Neu5Gc) content” (LEK Pharmaceuticals D.D., priority 2009, dated 2017).

In the first series the test system is chickens.
Test: not given
Conditions: rhEPO 1% Neu5Gc, fetuin 7% Neu5Gc, GM3 all Neu5Ac converted into Neu5Gc; cited from earlier work.
Turning to “fetuin: glycoprotein with a content of Neu5Gc amounting to 7%”, the “titre of antibodies against Neu5Gc in immunised chickens” value was “a significant titre of antibodies against Neu5Gc”.
For “rhEPO: recombinant human erythropoietin produced by Chinese hamster ovary (CHO) cells”, the “titre of antibodies against Neu5Gc in immunised chickens” value is on record as “did not produce a significant titre”.

A further series has as its system Recombinant CHO cells. The experiment in a line: Neu5Gc content of glycoprotein secreted by CHO cells cultivated with medium additives (RP-HPLC of DMB-labelled sialic acids). Format: cell-based, Chinese hamster. Conditions: NAcMan 5 mM in fermentation medium, darbepoetin alfa. The text has this:
Recombinant CHO cells expressing high titres of the glycosylated human glycoproteins were cultivated in suspension culture using rich in-house standard medium without additives according to the invention. After 2 weeks of passages, the cells were first harvested and subsequently inoculated into the same medium, however, supplemented with a range of DMSO concentrations from 0.25% to 1.50% (w/v). The effect of DMSO on growth, productivity, degree of sialylation, and Neu5Gc content was studied.
“One factor at the time”-experiments with different DMSO concentrations at 37° C. and 33° C., respectively, were performed at first in an attempt to determine the DMSO concentration and temperature which are best to minimise the Neu5Gc content on the glycoproteins secreted. To study the interaction between the parameters (i) DMSO concentration, (ii) time of DMSO addition, and (iii) time of the temperature shift (from 37° C. to 33° C.), further experiments were performed with the Design-Expert/Design-Ease programme (Stat-Ease, Inc., Minneapolis, Minn., USA) using the response surface method. Parameters (i), (ii), and (iii) were chosen as numeric factors and the axial points were set slightly out of already known ranges in order to cover a wide design space. One replicate on axial points, one replicate on factorial points and 4 centre points were performed. The results were analysed using the Design of Expert (DOE) software (Design-Expert, Version 7.1). The results of the shake flask experiments were confirmed in the Biostat®B bioreactor (Sartorius, B. Braun Biotech International, Germany). Exponentially growing cells were taken from cell culture flasks having a surface area of 225 cm^2 (Corning®Costar®). A Biostat®B bioreactor with a working volume of 5 litres was inoculated with 2×10^5 cells/ml. Cells were cultivated in a batch mode under standard conditions (37° C., pH 7.0, dissolved oxygen concentration (DOT) 50%) in the rich in-house standard medium supplemented with 0.75% (w/v) DMSO.
In order to study the effect of key intermediates of the metabolic pathway leading to the sialylation of the glycoproteins and consequently to the conversion of Neu5Ac to Neu5Gc, a two factorial minimal resolution IV design, which allows for the estimation of the main effects, was established. Said design allowed the determination which of the components NAcMan, NAcGlc, Man, Fru, and Gal has/have an impact on the degree of sialylation and conversion of Neu5Ac to Neu5Gc. To confirm the results from the DOE findings, the production medium was enriched with 8.75 mM NAcMan and 8.75 mM NAcGlc in combination with manganese (Mn^2+) salts in different concentrations, e.g., in the concentrations mentioned earlier in this application.
At the end of the batch culture the cells were removed. The glycoproteins were purified from the remaining harvests by means of immuno-affinity chromatography. Briefly, up to 2 mg of each of the glycoproteins per ml of the chromatographic resin (20-500 ml of the harvest) were loaded onto the column. Elution of the glycoproteins was performed with 0.1 M Na-phosphate buffer, pH 2.5. By adding 1 M Na-phosphate buffer, pH 7.5 (made up by a combination of Na2H-phosphate and NaH2-phosphate), the pH of the eluate was immediately adjusted to 7 and then stored for further analysis at below −60° C.
Sialic acids (Neu5Gc, Neu5Ac, Neu-5,7Ac2, Neu5Gc9Ac, Neu-5,9Ac2, Neu-5,8,9Ac3) were differentiated using highly sensitive RP-HPLC. Enzymatic desialylation with neuraminidase (a2-3,6,8,9-neuraminidase (Sialidase) from Arthrobacter ureafaciens, Roche, USA) released sialic acids. The released sialic acids were labelled with the fluorescent dye 1,2-diamino-4,5-methylenedioxybenzene (DMB). DMB-labelling is non-selective and therefore provides a pool of labelled sialic acid derivates in stoichiometric amounts. Derivates of the DMB-labelled sialic acids were separated on an RP-HPLC column using isocratic elution. […]
For `CC(=O)N[C@@H]1C(O)O[C@H](CO)[C@@H](O)[C@@H]1O` (stereo partly drawn) [NAcMan, N-acetylmannosamine], the “content of Neu5Gc” value is “about 0.5%”.

In the next series the target is T1, CMP-Neu5Ac hydroxylase (Mus musculus, UniProt Q61419).
T1 sequence (Q61419 5-577): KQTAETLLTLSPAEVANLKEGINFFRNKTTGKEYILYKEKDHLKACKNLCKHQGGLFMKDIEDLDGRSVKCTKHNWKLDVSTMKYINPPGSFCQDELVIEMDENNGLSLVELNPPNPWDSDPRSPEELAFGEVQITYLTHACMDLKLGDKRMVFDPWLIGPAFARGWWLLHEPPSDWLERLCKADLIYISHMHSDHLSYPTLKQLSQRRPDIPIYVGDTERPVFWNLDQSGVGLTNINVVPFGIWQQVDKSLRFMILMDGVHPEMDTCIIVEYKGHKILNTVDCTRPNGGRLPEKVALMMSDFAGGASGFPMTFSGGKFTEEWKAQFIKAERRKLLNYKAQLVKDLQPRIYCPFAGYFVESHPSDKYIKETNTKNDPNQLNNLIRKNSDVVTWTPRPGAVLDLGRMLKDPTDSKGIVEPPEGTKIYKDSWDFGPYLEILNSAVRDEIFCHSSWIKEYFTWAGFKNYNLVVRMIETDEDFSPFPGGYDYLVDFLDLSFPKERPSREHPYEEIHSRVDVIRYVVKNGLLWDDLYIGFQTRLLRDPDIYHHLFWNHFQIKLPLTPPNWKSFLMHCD
Test: not given
More on the design: concentration or dose not given beside the values. Particulars: in vitro; cited from earlier work.
Consider `[Co+2]` [Co^2+], for which the “inhibition of CMP-Neu5Ac hydroxylase” value is given as 50%.
Regarding `[Cu+2]` [Cu^2+], the “inhibition of CMP-Neu5Ac hydroxylase” value is reported as 80%.
Turning to `O=C(O)CN(CCN(CC(=O)O)CC(=O)O)CC(=O)O` [EDTA], the “inhibition of CMP-Neu5Ac hydroxylase” value is given as 60%.
For the compound `[Mn+2]` [Mn^2+], the “inhibition of CMP-Neu5Ac hydroxylase” value was 50%.
Consider `[Ni+3]` [Ni^3+], for which the “inhibition of CMP-Neu5Ac hydroxylase” value is recorded as 50%.
For the compound `[Zn+2]` [Zn^2+], the “inhibition of CMP-Neu5Ac hydroxylase” value is on record as 30%.
On to `O=S(=O)([O-])c1ccc(-c2nnc(-c3ccccn3)nc2-c2ccc(S(=O)(=O)[O-])cc2)cc1.[Na+].[Na+]` [ferozzine], for which the “inhibition of CMP-Neu5Ac hydroxylase” value is reported as 25%.
Regarding `c1cnc2c(c1)ccc1cccnc12` [phenanthreoline], the “inhibition of CMP-Neu5Ac hydroxylase” value was 25%.
For the compound `O=S(=O)(O)c1cc(O)c(O)c(S(=O)(=O)O)c1` [tiron], the “inhibition of CMP-Neu5Ac hydroxylase” value is 100%.
